One series deals with wild-type HIV-1 (IIIB). The experiment in a line: Anti-HIV-1 (IIIB) activity in MT-4 cell cultures, MTT method. The series is classed as cell-based. The conditions noted are these: for anti-HIV-1 wild-type activity (in words): MT-4 cells, HIV-1 IIIB. As for the experimental part: (§1) The newly synthesized dihydroartemisinin triazole derivatives were evaluated for their inhibitory effects (IC50) on the replication of wild-type HIV-1 (IIIB) and HIV-2 (ROD) in MT-4 cell cultures, in parallel with their cytotoxicities (CC50) using the 3-(4,5-dimethylthiazol-2-yl)-2,5-diphenyl tetrazolium bromide (MTT) method. A series of nucleoside reverse transcriptase inhibitors (NRTIs)—i.e., azidothymidine (AZT), lamivudine (3TC) and didanosine (DDI)—and non-nucleoside reverse transcriptase inhibitors (NNRTIs)—i.e., nevirapine (NVP), efavirenz (EFV), and etravirine (ETR)—were included as reference compounds. The biological results are represented as IC50 and CC50 values in Table 3.

A further series concerns HIV-2 (ROD). The series is described as follows: Anti-HIV-2 (ROD) activity in MT-4 cell cultures, MTT method. The series is classed as cell-based. As for the experimental part: as §1
In general terms: Formazan colour is commonly taken as a measure of viable cells.

The test system of series [1] is double reverse transcriptase mutant (K103N; Y181C) HIV-1 strain (RES056). The experiment in a line: Activity against double reverse transcriptase mutant HIV-1 strain RES056 in MT-4 cell cultures, MTT method. The settings on record: for IC50: Human immunodeficiency virus 1, MT4, read-out: IC50 HIV-1 Strain RES056; for inhibitory activity against RES056 (in words): K103N, Y181C double RT mutant HIV-1, MT-4 cells. The series is classed as cell-based. As for the experimental part:
as §1
Most of the new triazole analogues of dihydroartemisinin are completely devoid of anti-HIV activity. […] The active molecules were also evaluated for their inhibitory activity against a double reverse transcriptase mutant (K103N; Y181C) HIV-1 strain (RES056). […] Therefore, the active β-tetralone derivatives most probably act via an NNRTI-type mode of action.

Series [2] can be described thus: Cytotoxicity in mock-infected MT-4 cell cultures, MTT method. Type of series: cell-based. The settings on record: human. On the procedure: as §1
In another series the test system is MT-4 cells. The description is as above. Type of series: cell-based. The conditions noted are these: cell culture. On the procedure: as §1
Where [3] appears, read: Human immunodeficiency virus 1, IIIB, MT4, 50% protection of MT-4 cell cultures against virus-induced cytotoxicity, MTT method, read-out: IC50 HIV-1 Strain IIIB.
Where [4] appears, read: Human immunodeficiency virus 2, MT4, 50% protection of MT-4 cell cultures against virus-induced cytotoxicity, MTT method, read-out: IC50 HIV-2 Strain ROD.
The mark [5] stands for this setting: mock-infected MT-4 cells, concentration reducing viability of mock-infected MT-4 cell cultures by 50%, MTT method, read-out: CC50.
The mark [6] stands for this setting: Human immunodeficiency virus 2, MT4, read-out: IC50 HIV-2 Strain ROD.
Setting [7] is: concentration reducing viability of mock-infected MT-4 cell cultures by 50%, MTT method, read-out: CC50.

Each structure is given as a SMILES string. Like-named read-outs stand apart in the source and are kept apart here.

Here are results for 13 molecules from article PMC6155659, “Application of the Triazolization Reaction to Afford Dihydroartemisinin Derivatives with Anti-HIV Activity” (Molecules : A Journal of Synthetic Chemistry and Natural …, 2017).

The term melting point denotes the temperature of the solid-liquid transition. `COc1cc(Cn2nnc3c2CCC(C(=O)O[C@@H]2O[C@@H]4O[C@@]5(C)CCC6[C@H](C)CC[C@@H]([C@H]2C)[C@]64OO5)C3)cc(OC)c1OC` (stereo partly drawn) gave a melting point of 80 to 81 °C.

Turning to `C[C@H]1[C@H](OCCn2nncc2-c2ccc(Br)c(Br)c2)O[C@@H]2O[C@@]3(C)CCC4[C@H](C)CC[C@@H]1[C@]42OO3` (stereo partly drawn), the melting point is 105 to 106 °C.

Take `C[C@H]1[C@H](OCCn2nnc3c2C[C@@H]2CC[C@@H]4[C@H](CC[C@]5(C)[C@@H](O)CC[C@@H]45)[C@@]2(C)C3)O[C@@H]2O[C@@]3(C)CCC4[C@H](C)CC[C@@H]1[C@]42OO3` (stereo partly drawn): the melting point lay in the range of 96 to 97 °C.

In general, IC50 refers to the concentration that gives 50% inhibition. The term CC50 denotes the concentration that lowers cell viability or growth by half. With `Cc1cn([C@H]2C[C@H](N=[N+]=[N-])[C@@H](CO)O2)c(=O)[nH]c1=O` [Azidothymidine, azidothymidine, reference compound], the IC50 with wild-type HIV-1 (IIIB) (setting [3]) was 0.0064 µM; in the series with HIV-2 (ROD) (setting [4]), 0.0082 µM; in series [1], 0.0071 µM. Further, the CC50 in series [2] is greater than 7.5 µM.

Turning to `C[C@H]1[C@H](OCCn2nnc3c2-c2ccccc2CC3)O[C@@H]2O[C@@]3(C)CCC4[C@H](C)CC[C@@H]1[C@]42OO3` (stereo partly drawn) [Compound 8a, 1-(2-(((3R,6R,8aS,9R,10R,12R,12aR)-3,6,9-Trimethyldecahydro-12H-3,12-epoxy[1,2]dioxepino[4,3-i]isochromen-10-yl)oxy)ethyl)-4,5-dihydro-1H-naphtho[1,2-d][1,2,3]triazole], the IC50 in the series on wild-type HIV-1 (IIIB) (setting [3]) and with HIV-2 (ROD) (setting [4]) was greater than 10.3 µM each time. For the same molecule, the “anti-HIV-1 wild-type activity (in words)” value in the series on wild-type HIV-1 (IIIB) is “did not show any activity”. In series [2] (setting [5]), the CC50 is greater than 10.3 µM.

With `C[C@H]1[C@H](OCCn2nnc3c2CCc2ccccc2-3)O[C@@H]2O[C@@]3(C)CCC4[C@H](C)CC[C@@H]1[C@]42OO3` (stereo partly drawn) [Compound 8b, 3-(2-(((3R,6R,8aS,9R,10R,12R,12aR)-3,6,9-Trimethyldecahydro-12H-3,12-epoxy[1,2]dioxepino[4,3-i]isochromen-10-yl)oxy)ethyl)-4,5-dihydro-3H-naphtho[1,2-d][1,2,3]triazole], the melting point lay within 104 to 105 °C. Moreover, the IC50 in the series with wild-type HIV-1 (IIIB) (setting [3]) was determined as 2.78 µM. In the series with wild-type HIV-1 (IIIB), the “anti-HIV-1 wild-type activity (in words)” value was “inhibitory to HIV-1 replication”. Moreover, the IC50 with HIV-2 (ROD) (setting [6]) is greater than 31.5 µM. Moreover, in series [1], the IC50 was greater than 31.5 µM and the “inhibitory activity against RES056 (in words)” value (shortened to “inhibitory activity”) is given as “completely lose their inhibitory activity”. Moreover, in series [2] (setting [5]), the CC50 came to 31.5 µM. In the series with MT-4 cells, the “cytotoxicity (in words)” value is on record as “limited cytotoxicity”.

On to `COc1cc2c(cc1OC)-c1nnn(CCO[C@@H]3O[C@@H]4O[C@@]5(C)CCC6[C@H](C)CC[C@@H]([C@H]3C)[C@]64OO5)c1CC2` (stereo partly drawn) [Compound 8c, 7,8-Dimethoxy-3-(2-(((3R,6R,8aS,9R,10R,12R,12aR)-3,6,9-trimethyldecahydro-12H-3,12-epoxy[1,2]dioxepino[4,3-i]isochromen-10-yl)oxy)ethyl)-4,5-dihydro-3H-naphtho[1,2-d][1,2,3]triazole], for which the IC50 was 4.06 µM with wild-type HIV-1 (IIIB) (setting [3]), greater than 21.2 µM in the series on HIV-2 (ROD) (setting [6]) and greater than 21.2 µM in series [1]. Besides, in the series on wild-type HIV-1 (IIIB), the “anti-HIV-1 wild-type activity (in words)” value is listed as “inhibitory to HIV-1 replication”. In series [1], the “inhibitory activity” value is reported as “completely lose their inhibitory activity”. Besides, the CC50 in series [2] (setting [5]) came to 21.2 µM. Further, the “cytotoxicity (in words)” value in the series with MT-4 cells was “limited cytotoxicity”.

As for `COc1ccc2c(c1)-c1nnn(CCO[C@@H]3O[C@@H]4O[C@@]5(C)CCC6[C@H](C)CC[C@@H]([C@H]3C)[C@]64OO5)c1CC2` (stereo partly drawn) [Compound 8e, 8-Methoxy-3-(2-(((3R,6R,8aS,9R,10R,12R,12aR)-3,6,9-trimethyldecahydro-12H-3,12-epoxy[1,2]dioxepino[4,3-i]isochromen-10-yl)oxy)ethyl)-4,5-dihydro-3H-naphtho[1,2-d][1,2,3]triazole], the IC50 in the series with wild-type HIV-1 (IIIB) (setting [3]) is 5.18 µM; in the series on HIV-2 (ROD) (setting [6]) it was greater than 14.9 µM; in series [1], greater than 14.9 µM. Also, in the series with wild-type HIV-1 (IIIB), the “anti-HIV-1 wild-type activity (in words)” value is listed as “inhibitory to HIV-1 replication”. Moreover, in series [1], the “inhibitory activity” value is given as “completely lose their inhibitory activity”. Moreover, in series [2] (setting [5]), the CC50 was determined as 14.9 µM. In the series on MT-4 cells, the “cytotoxicity (in words)” value was “limited cytotoxicity”.

For the molecule `O=c1[nH]cnc2c1ncn2[C@H]1CC[C@@H](CO)O1` [Didanosine, didanosine, reference compound], the IC50 came out at 76 µM with wild-type HIV-1 (IIIB) (setting [3]) and 82.1 µM with HIV-2 (ROD) (setting [4]). Further, the CC50 in series [2] was greater than 212 µM.

For `O=C1Nc2ccc(Cl)cc2[C@@](C#CC2CC2)(C(F)(F)F)O1` [Efavirenz, efavirenz], the IC50 with wild-type HIV-1 (IIIB) (setting [3]) was 0.0024 µM; with HIV-2 (ROD) (setting [4]) it was greater than 6.3 µM; in series [1] it was 0.18 µM. Also, the “inhibitory activity” value in series [1] was “only slightly affected”. Further, the CC50 in series [2] (setting [7]) was greater than 6.3 µM.

On to `Cc1cc(C#N)cc(C)c1Oc1nc(Nc2ccc(C#N)cc2)nc(N)c1Br` [Etravirine, etravirine], for which the IC50 in the series on wild-type HIV-1 (IIIB) (Human immunodeficiency virus 1, MT4, read-out: IC50 HIV-1 Strain IIIB) was 0.0034 µM; in the series on HIV-2 (ROD) (setting [6]), greater than 2.29 µM; in series [1] it was 0.045 µM. Also, the “inhibitory activity” value in series [1] is “only slightly affected”. Also, in series [2] (setting [5]), the CC50 worked out at 2.29 µM.

As for `Nc1ccn([C@@H]2CS[C@H](CO)O2)c(=O)n1` [Lamivudine, lamivudine, reference compound], the IC50 stood at 2.53 µM in the series with wild-type HIV-1 (IIIB) (setting [3]) and 9.9 µM with HIV-2 (ROD) (setting [4]). Also, the 50% cytotoxic concentration (CC50) in series [2] is greater than 87.2 µM.

With `Cc1ccnc2c1NC(=O)c1cccnc1N2C1CC1` [Nevirapine, nevirapine], the IC50 was 0.075 µM in the series with wild-type HIV-1 (IIIB) (setting [3]), greater than 15 µM in the series with HIV-2 (ROD) (setting [4]) and greater than 15 µM in series [1]. In addition, in series [1], the “inhibitory activity” value was “completely lose their inhibitory activity”. The CC50 in series [2] (setting [7]) is greater than 15 µM.
